Tests used:
[1] = biological target: T1, human noradrenaline transporter (hNET) (Homo sapiens, UniProt P23975); test: biochemical; type: binding
T1 construct: expressed in transfected cells; host or cells: COS-7 cells (ATCC), transient transfection with metafectene

[2] = biological target: T1, human noradrenaline transporter (hNET); test: cell-based

T1 sequence (P23975 whole entry): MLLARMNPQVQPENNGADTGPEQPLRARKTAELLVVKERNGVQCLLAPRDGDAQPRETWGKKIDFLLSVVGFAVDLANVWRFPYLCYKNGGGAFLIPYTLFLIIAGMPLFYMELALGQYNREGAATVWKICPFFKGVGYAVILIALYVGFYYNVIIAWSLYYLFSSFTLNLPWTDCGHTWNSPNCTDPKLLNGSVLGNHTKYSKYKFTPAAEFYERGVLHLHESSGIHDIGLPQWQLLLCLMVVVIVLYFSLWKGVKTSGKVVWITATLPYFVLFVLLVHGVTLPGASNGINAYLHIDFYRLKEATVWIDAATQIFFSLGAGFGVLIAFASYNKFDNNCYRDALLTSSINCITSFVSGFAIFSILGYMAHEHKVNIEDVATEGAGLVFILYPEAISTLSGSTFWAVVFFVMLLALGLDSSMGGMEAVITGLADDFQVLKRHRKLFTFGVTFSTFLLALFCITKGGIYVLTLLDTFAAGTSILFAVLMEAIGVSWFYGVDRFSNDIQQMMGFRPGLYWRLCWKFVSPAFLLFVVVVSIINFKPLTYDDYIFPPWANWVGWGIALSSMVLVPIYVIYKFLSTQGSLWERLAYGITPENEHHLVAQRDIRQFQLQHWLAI

SMILES	IC50 [1] [nM]	IC50 [2] [nM]
CC(C)C[C@@H]1NC(=O)[C@H](CCCCN)NC(=O)[C@H](Cc2ccc(O)cc2)NC(=O)CNC(=O)[C@@H]2CSSC[C@H](NC1=O)C(=O)N[C@@H](Cc1c[nH]cn1)C(=O)N1C[C@H](O)C[C@H]1C(=O)N[C@H](C(=O)O)CSSC[C@H](NC(=O)[C@@H](NC(=O)CNC(=O)[C@@H]1CCC(=O)N1)C(C)C)C(=O)N2 [SEQ ID NO. 9, Xaa1 Gly Val Cys Cys Gly Tyr Lys Leu Cys His Xaa3 Cys —OH]	8320	–
COc1ccc(C[C@@H]2NC(=O)CNC(=O)[C@@H]3CSSC[C@H](NC(=O)[C@H](CC(C)C)NC(=O)[C@H](CCCCN)NC2=O)C(=O)N[C@@H](Cc2c[nH]cn2)C(=O)N2C[C@H](O)C[C@H]2C(=O)N[C@H](C(N)=O)CSSC[C@H](NC(=O)[C@@H](NC(=O)CNC(=O)[C@@H]2CCC(=O)N2)C(C)C)C(=O)N3)cc1 [SEQ ID NO. 6, Xaa1 Gly Val Cys Cys Gly Xaa4 Lys Leu Cys His Xaa3 Cys]	1150	214
CC(C)C[C@@H]1NC(=O)[C@H](CCCCN)NC(=O)[C@H](Cc2ccc(O)cc2)NC(=O)CNC(=O)[C@@H]2CSSC[C@H](NC1=O)C(=O)N[C@@H](Cc1c[nH]cn1)C(=O)N1C[C@H](O)C[C@H]1C(=O)N[C@@H](C(N)=O)CSSC[C@H](NC(=O)[C@@H](NC(=O)CNC(=O)[C@@H]1CCC(=O)N1)C(C)C)C(=O)N2 [SEQ ID NO. 5, Xaa1 Gly Val Cys Cys Gly Tyr Lys Leu Cys His Xaa3 Xaa5]	4170	575

— patent publication US7851444B2 (priority 2002, dated 2010)
